Measured values published in patent US20240299591A1, “Antimicrobial Peptides and Their Use” (priority 2021, published 2024).
Values after ≈ are worked out from the molar mass of the structure shown. Where a SMILES comes first, the peptide text is derived from it. [ ]: non-standard residue; d: D form. The star is where a group is joined. X1 = CN1/C(=C/C=C(/C=C/C2=[N+](C)c3ccccc3C2(C)C)c2ccc(C(=O)*)cn2)C(C)(C)c2ccccc21; X2 = O=C1OC2(c3ccc(O)cc3Oc3cc(O)ccc32)c2cccc(C(=O)*)c21

Key:
Type in all cases: cell-based
[1] = system: Fusarium oxysporum; conditions: 24 h
Experimental: Dose dependent inhibition of fungal growth by all non-labelled peptides (indicated by IC50 values) was determined via this methodology. The assays were performed using Nunc 262162 U96 polystyrene round bottomed clear plates (www.nuncbrand.com).
(§1) When testing the peptides against A. fumigatus, peptides at different concentrations were mixed with A. fumigatus conidia to reach a final volume of 100 μL per well. The final conidial concentration was 5×10^5 cells/mL in 10% Vogel's medium. After 24 h of incubation at 37° C. in 96 well plates, fungal growth with the different peptide concentrations was determined by measurement of the optical density at 610 nm in a TriStar LB 941 Multimode Microplate Reader. The IC50 values were determined using four parameter logistic regression formula provided by Sigma Plot 10.0. Values are represented as means±SEM from two independent experiments (n=3).
When testing the peptides against N. crassa and F. oxysporum, experiments were carried as described above apart from the incubation temperature was changed to 25° C. for N. crassa and 35° C. for F. oxysporum.
(§2) The IC50 of the fluorescently labelled peptides cannot be accurately determined using the optical density method described in the last section. This is because the fluorophore structures absorbed light at 610 nm which was the wavelength used for the optical density measurements. In order to overcome this, the BacTiter-Glo™ Microbial Cell Viability Assay kit purchased from Promega was used. The BacTiter-Glo™ Reagent relies on the properties of a proprietary thermostable luciferase (Ultra-Glo™ Recombinant Luciferase) and a proprietary formulation for extracting ATP from fungal cells which will generates a ‘glow-type’ luminescent signal. This is produced by the luciferase reaction shown in Scheme 1, which has a signal half-life of over 30 min depending on the experimental conditions. The luminescent signal is proportional to the amount of ATP present, which is directly proportional to the number of living cells in culture.
(§3) The IC50 assays for all fluorescently labelled peptides were performed using Greiner CELLSTAR white polystyrene wells flat bottomed 96 well plates. The incubation conditions remained the same for the optical density measurement described in the previous section. Once the incubation procedure was finished, the plate was equilibrated to room temperature. A mixture of BacTiter-Glo™ buffer and substrate was then added to the plate (100 μL per well). The plate was shaken for 5 min and read using the Tristar […] luminometer. Data analysis was performed using Sigma Plot 10.0. All values shown are presented as means±SEM from two independent experiments (n=3).

[2] = system: Aspergillus fumigatus; conditions: 24 h
Experimental: The assays were performed using Nunc 262162 U96 polystyrene round bottomed clear plates (www.nuncbrand.com).
as §1, §2, §3

[3] = system: C. albicans, F. oxysporum, A. fumigatus, and C. neoformans; assay: Live cell imaging, fluorescent labelling of pathogenic fungi; design: dose or concentration left out as unconfirmed; conditions: 15 min incubation at 37° C. in RPMI
Experimental: The N. crassa mat A WT used for confocal live-cell imaging was grown on 100% Vogel's agar medium at 25° C. for 3-5 days before the spores were harvested. The A. fumigatus CEA10 strain used for confocal live-cell imaging was grown on 100% Vogel's medium at 37° C. for 4-5 days before the spores were harvested. Before the confocal experiments were performed, N. crassa spores were incubated in eight-well slide culture chambers for 3 h at 25° C. in liquid 10% Vogel's medium and A. fumigatus spores were incubated for 16 h at 25° C. in liquid 10% Vogel's medium in order to allow germination to fully take place for imaging.
Live-cell imaging of germinated fungi spores was performed using a Leica TCS SP8 confocal laser scanning microscope equipped with photo multiplier tubes (PMT), hybrid GaAsP (HyD) detectors and a 63× water immersion objective. A Leica turntable white light laser (WLL, 450-750 nm), argon laser (458 nm, 476 nm, 488 nm and 496 nm) and UV laser (405 nm) were used for fluorescence excitation.
The major pathogenic fungi include C. albicans, F. oxysporum, A. fumigatus, and C. neoformans.

[4] = system: reconstructed cornea-like epithelium (RhCE, EpiOcular™); assay: Viability of reconstructed cornea-like epithelium (eye irritation model)
Experimental: (§4) FIG. 4a is a graph of the viability reconstructed cornea-like epithelium (RhCE, EpiOcular™) after incubation with MFIGA001. NC=Negative Control; PC=Positive Control. FIG. 4b is a graph of the viability reconstructed cornea-like epithelium (RhCE, EpiOcular™) after incubation with 10 µM of MFIGA001a and MFIGAF001b. NC=Negative Control; PC=Positive Control; A2=MFIGAF001a; and B1=MFIGAF001b.
(§5) MFIGAF001 was also assessed independently by a CRO (Evotec) in an OECD compliant reconstructed cornea-like epithelial cell model (RhCE, EpiOcular™).

[5] = as above; conditions: human, reconstructed cornea-like epithelium (RhCE, EpiOcular™)
Experimental: as §4, §5

Compound	IC50 Fusarium oxysporum [1]	IC50 Aspergillus fumigatus [2]	Fluorescent labelling of pathogenic fungi [3]	Toxicity, reconstructed cornea-like epithelium (FIG. 4) [4]	viability at 10 µM [5]
H-RKKWFW-NH2 [PAF26, NH2-Arg-Lys-Lys-Trp-Phe-Trp-CONH2, reference compound]	7.2 µg/mL	8.0 µg/mL			
N=C(N)NCCC[C@@H]1NC(=O)[C@H](CCCCNC(=O)c2cccc3c2C(=O)OC32c3ccc(O)cc3Oc3cc(O)ccc32)NC(=O)[C@H](Cc2c[nH]c3ccccc23)NC(=O)[C@H](Cc2ccccc2)NC(=O)[C@H](Cc2c[nH]c3ccccc23)NC(=O)[C@@H](Cc2ccccc2)NC(=O)[C@H](CCCCN)NC(=O)[C@H](CCCCN)NC1=O [MFIGAF001d, Cyclo(Arg-Lys-Lys-phe-Trp-Phe-Trp-Lys(CF))] (cyclo(FWK(X2)RKK[dF]W))	3.0 µg/mL (≈ 1.92 µM)	2.9 µg/mL (≈ 1.85 µM)			
N=C(N)NCCC[C@@H]1NC(=O)CNC(=O)[C@H](Cc2c[nH]c3ccccc23)NC(=O)[C@H](Cc2ccccc2)NC(=O)[C@H](Cc2c[nH]c3ccccc23)NC(=O)[C@@H]2CCCN2C(=O)[C@H](CCCCN)NC(=O)[C@H](CCCCN)NC1=O [MFIGAF007, Cyclo(Arg-Lys-Lys-pro-Trp-Phe-Trp-Gly)]	3.4 µg/mL (≈ 3.13 µM)	5.2 µg/mL (≈ 4.79 µM)			
N=C(N)NCCC[C@@H]1NC(=O)CNC(=O)[C@H](Cc2c[nH]c3ccccc23)NC(=O)[C@H](Cc2ccccc2)NC(=O)[C@H](Cc2c[nH]c3ccccc23)NC(=O)[C@H]2CCCN2C(=O)[C@H](CCCCN)NC(=O)[C@H](CCCCN)NC1=O [MFIGAF008]	3.8 µg/mL (≈ 3.5 µM)	5.5 µg/mL (≈ 5.06 µM)			
C[C@H]1NC(=O)[C@H](CCCCN)NC(=O)[C@H](CCCCN)NC(=O)[C@H](CCCNC(=N)N)NC(=O)CNC(=O)[C@H](Cc2c[nH]c3ccccc23)NC(=O)[C@H](Cc2ccccc2)NC(=O)[C@H](Cc2c[nH]c3ccccc23)NC1=O [MFIGAF005, Cyclo(Arg-Lys-Lys-ala-Trp-Phe-Trp-Gly)] (HELM PEPTIDE1{F.W.G.R.K.K.[dA].W}$PEPTIDE1,PEPTIDE1,1:R1-8:R2$$$V2.0)	3.1 µg/mL (≈ 2.92 µM)	6.3 µg/mL (≈ 5.94 µM)			
N=C(N)NCCC[C@H](N)C(=O)N[C@@H](CCCCN)C(=O)N[C@@H](CCCCN)C(=O)N1CCC[C@@H]1C(=O)N[C@@H](Cc1c[nH]c2ccccc12)C(=O)N[C@@H](Cc1ccccc1)C(=O)N[C@@H](Cc1c[nH]c2ccccc12)C(=O)NCC(=O)O [MFIGAF004]	4.1 µg/mL (≈ 3.71 µM)	5.2 µg/mL (≈ 4.71 µM)			
N=C(N)NCCC[C@@H]1NC(=O)CNC(=O)[C@H](CCCCNC(=O)c2cccc3c2C(=O)OC32c3ccc(O)cc3Oc3cc(O)ccc32)NC(=O)[C@H](Cc2c[nH]c3ccccc23)NC(=O)[C@H](Cc2ccccc2)NC(=O)[C@H](Cc2c[nH]c3ccccc23)NC(=O)[C@@H](Cc2ccccc2)NC(=O)[C@H](CCCCN)NC(=O)[C@H](CCCCN)NC1=O [MFIGAF001b, Cyclo(Arg-Lys-Lys-phe-Trp-Phe-Trp-Lys(CF)-Gly)] (cyclo(FWK(X2)GRKK[dF]W))	2.3 µg/mL (≈ 1.42 µM)	2.1 µg/mL (≈ 1.29 µM)	label all major pathogenic fungi that cause fungal keratitis	no obvious toxicity	99.1%
CN1/C(=C/C=C(/C=C/C2=[N+](C)c3ccccc3C2(C)C)c2ccc(C(=O)NCCCC[C@@H]3NC(=O)[C@H](Cc4c[nH]c5ccccc45)NC(=O)[C@H](Cc4ccccc4)NC(=O)[C@H](Cc4c[nH]c5ccccc45)NC(=O)[C@@H](Cc4ccccc4)NC(=O)[C@H](CCCCN)NC(=O)[C@H](CCCCN)NC(=O)[C@H](CCCNC(=N)N)NC3=O)cn2)C(C)(C)c2ccccc21 [MFIGAF001c, Cyclo(Arg-Lys-Lys-phe-Trp-Phe-Trp-Lys(Cy5))] (cyclo(FWK(X1)RKK[dF]W))	1.8 µg/mL	1.5 µg/mL			
N=C(N)NCCC[C@H](N)C(=O)N[C@@H](CCCCN)C(=O)N[C@@H](CCCCN)C(=O)N[C@H](Cc1ccccc1)C(=O)N[C@@H](Cc1c[nH]c2ccccc12)C(=O)N[C@@H](Cc1ccccc1)C(=O)N[C@@H](Cc1c[nH]c2ccccc12)C(=O)NCC(=O)O [MFIGAF002, NH2-Arg-Lys-Lys-phe-Trp-Phe-Trp-Gly-COOH] (HELM PEPTIDE1{R.K.K.[dF].W.F.W.G}$$$$V2.0)	3.5 µg/mL (≈ 3.03 µM)	2.8 µg/mL (≈ 2.43 µM)			
C[C@@H](NC(=O)[C@H](CCCCN)NC(=O)[C@H](CCCCN)NC(=O)[C@@H](N)CCCNC(=N)N)C(=O)N[C@@H](Cc1c[nH]c2ccccc12)C(=O)N[C@@H](Cc1ccccc1)C(=O)N[C@@H](Cc1c[nH]c2ccccc12)C(=O)NCC(=O)O [MFIGAF000, NH2-Arg-Lys-Lys-ala-Trp-Phe-Trp-Gly-COOH] (HELM PEPTIDE1{R.K.K.[dA].W.F.W.G}$$$$V2.0)	4.2 µg/mL (≈ 3.9 µM)	5.3 µg/mL (≈ 4.92 µM)			
N=C(N)NCCC[C@H](N)C(=O)N[C@@H](CCCCN)C(=O)N[C@@H](CCCCN)C(=O)N1CCC[C@H]1C(=O)N[C@@H](Cc1c[nH]c2ccccc12)C(=O)N[C@@H](Cc1ccccc1)C(=O)N[C@@H](Cc1c[nH]c2ccccc12)C(=O)NCC(=O)O [MFIGAF003, NH2-Arg-Lys-Lys-pro-Trp-Phe-Trp-Gly-COOH]	4.1 µg/mL (≈ 3.71 µM)	5.2 µg/mL (≈ 4.71 µM)			
